# Calls of active or inactive are those of the source.
# Tests used:
# [1] = molecular target: Dual specificity tyrosine-phosphorylation-regulated kinase 1A (Rattus norvegicus, UniProt Q63470); type: biochemical, Homo sapiens
# [2] = molecular target: Induced myeloid leukemia cell differentiation protein Mcl-1 (Homo sapiens, UniProt Q07820); type: functional
# [3] = molecular target: T1, Rac GTPase-activating protein 1 (Homo sapiens, UniProt Q9H0H5); experiment: blockers of MgcRacGAP-driven Rac1 GTP hydrolysis – biochemical, ADP Hunter fluorescence, primary and confirmatory, confirmation (AID 624330); type: functional
# T1 sequence (Q9H0H5 whole entry): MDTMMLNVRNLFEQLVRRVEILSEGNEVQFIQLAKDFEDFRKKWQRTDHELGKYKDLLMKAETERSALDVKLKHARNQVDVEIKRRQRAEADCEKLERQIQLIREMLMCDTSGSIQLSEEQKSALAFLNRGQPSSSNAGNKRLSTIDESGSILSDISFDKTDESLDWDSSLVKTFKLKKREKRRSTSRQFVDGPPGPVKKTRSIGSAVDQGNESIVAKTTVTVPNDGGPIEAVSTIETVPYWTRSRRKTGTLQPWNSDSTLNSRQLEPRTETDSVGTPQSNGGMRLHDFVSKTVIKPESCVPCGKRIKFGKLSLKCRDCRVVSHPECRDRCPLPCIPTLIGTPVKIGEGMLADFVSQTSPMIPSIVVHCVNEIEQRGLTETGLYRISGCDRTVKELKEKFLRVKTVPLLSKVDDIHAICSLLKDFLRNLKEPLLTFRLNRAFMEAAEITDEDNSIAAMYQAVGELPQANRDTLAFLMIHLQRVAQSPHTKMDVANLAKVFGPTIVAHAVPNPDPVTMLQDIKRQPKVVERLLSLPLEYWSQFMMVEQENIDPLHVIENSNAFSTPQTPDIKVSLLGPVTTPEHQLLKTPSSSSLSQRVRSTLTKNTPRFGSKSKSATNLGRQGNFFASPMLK
# [4] = cells; type: functional, cell-based
# [5] = cells; type: functional, cell-based; remark: listed apart in the source
# [6] = tested on: Vero; experiment: cells; type: functional; conditions: Chlorocebus sabaeus
# [7] = tested on: Streptococcus sp. 'group A'; experiment: Streptococcus pyogenes SK(-)GAS viability under kanamycin – luminescence, BacTiterGlo, confirmation, counter-screen for streptokinase expression inhibitor project, dose response (AID 1900); type: functional, organism-based
# [8] = molecular target: T2, Streptokinase A (Streptococcus pyogenes serotype M1, UniProt P10520); experiment: viability-normalized secreted streptokinase activity reduction – plasminogen activation absorbance, OD405, dose response (AID 1914); type: functional, Streptococcus pyogenes M1 GAS;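 also: secreted streptokinase activity via plasminogen activation per viability signal from cell pellet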
# T2 sequence (P10520 whole entry): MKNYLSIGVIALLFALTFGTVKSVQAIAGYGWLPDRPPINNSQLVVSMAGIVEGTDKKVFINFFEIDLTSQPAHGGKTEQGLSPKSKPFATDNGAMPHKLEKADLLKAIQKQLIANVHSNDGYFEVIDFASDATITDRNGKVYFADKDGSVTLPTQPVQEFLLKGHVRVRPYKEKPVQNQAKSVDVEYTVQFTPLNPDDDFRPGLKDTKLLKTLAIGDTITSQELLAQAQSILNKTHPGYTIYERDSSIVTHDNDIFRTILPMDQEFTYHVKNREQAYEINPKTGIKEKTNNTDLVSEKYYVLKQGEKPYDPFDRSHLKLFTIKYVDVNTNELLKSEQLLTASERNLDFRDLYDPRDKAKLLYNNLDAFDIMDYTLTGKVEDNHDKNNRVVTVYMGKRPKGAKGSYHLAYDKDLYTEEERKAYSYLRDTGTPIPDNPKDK
# [9] = tested on: Streptococcus; experiment: GAS UMAA2166 growth inhibition – luminescence, BacTiterGlo, counter-screen for streptokinase expression inhibitor project, dose response (AID 1915); type: functional, organism-based;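 also: potency for reduction of bacterial viability or growth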
# [10] = intracellular Trypanosoma cruzi inhibitors in host cells – cell-based, plate reader, cherry-pick samples, set 3, dose response (AID 651818); type: functional;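 also: compounds incubated with infected cells for about four days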
# [11] = molecular target: T3, Corticotropin-releasing factor receptor 2/Corticotropin-releasing factor-binding protein (Homo sapiens, UniProt P24387+Q13324); experiment: Dose Response confirmation of uHTS hits for small molecule antagonists of the CRF-binding protein and CRF-R2 receptor complex.; type: functional; conditions: read-out: IC50_Mean
# T3 sequence (Q13324 whole entry): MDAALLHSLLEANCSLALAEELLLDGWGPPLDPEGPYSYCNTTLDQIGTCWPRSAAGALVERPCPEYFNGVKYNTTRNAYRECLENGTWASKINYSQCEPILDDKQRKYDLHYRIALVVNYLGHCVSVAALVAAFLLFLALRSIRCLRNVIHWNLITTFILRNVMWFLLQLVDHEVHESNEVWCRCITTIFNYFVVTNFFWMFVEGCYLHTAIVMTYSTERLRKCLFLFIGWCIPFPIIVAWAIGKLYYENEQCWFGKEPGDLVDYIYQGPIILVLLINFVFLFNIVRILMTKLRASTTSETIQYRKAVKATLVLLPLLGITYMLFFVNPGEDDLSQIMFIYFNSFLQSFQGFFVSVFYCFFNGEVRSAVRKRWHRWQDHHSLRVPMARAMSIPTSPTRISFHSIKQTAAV
# T3 sequence (P24387 whole entry): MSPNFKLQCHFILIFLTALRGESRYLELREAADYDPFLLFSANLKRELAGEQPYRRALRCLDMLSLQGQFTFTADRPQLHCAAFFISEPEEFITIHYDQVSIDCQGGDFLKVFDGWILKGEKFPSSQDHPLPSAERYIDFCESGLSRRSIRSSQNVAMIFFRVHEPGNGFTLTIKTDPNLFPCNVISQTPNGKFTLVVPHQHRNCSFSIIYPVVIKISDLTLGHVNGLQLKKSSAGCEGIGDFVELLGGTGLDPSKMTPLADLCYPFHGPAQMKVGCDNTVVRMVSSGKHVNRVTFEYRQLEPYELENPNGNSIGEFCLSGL
# [12] = molecular target: T3, Corticotropin-releasing factor receptor 2/Corticotropin-releasing factor-binding protein; experiment: activators of CRF receptor 2 with binding protein – uHTS hits, confirmation (AID 602473); type: functional; conditions: read-out: EC50_Mean
# [13] = molecular target: T4, Fatty acid synthase (Homo sapiens, UniProt P49327); experiment: inhibition of human FAS-TE enzyme activity – biochemical, endpoint fluorescence intensity, uHTS hits, dose response (AID 624327); type: functional;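 also: fluorescence from hydrolysis of an O-methyl fluorescein acyl ester substrate by the enzyme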
# [14] = molecular target: T4, Fatty acid synthase; experiment: inhibition of human FAS-TE enzyme activity – biochemical, kinetic fluorescence intensity, dose response (AID 624326); type: functional;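 also: rate of fluorescence rise from hydrolysis of a fluorogenic O-methyl fluorescein ester substrate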
# [15] = molecular target: T5, Heat shock factor protein 1 (Mus musculus, UniProt P38532); experiment: enhancement of HSF1-driven luciferase signal – cell-based, NIH3T3, luminescence, dose retest, confirmation (AID 435004); type: functional;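 also: stress induced by proteasome inhibitor MG132 added 30 min after compound; luciferase reporter driven by HSF1 response element in NIH3T3 cells; actives raise luminescence as potentiators of the MG132 stress response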
# T5 sequence (P38532 whole entry): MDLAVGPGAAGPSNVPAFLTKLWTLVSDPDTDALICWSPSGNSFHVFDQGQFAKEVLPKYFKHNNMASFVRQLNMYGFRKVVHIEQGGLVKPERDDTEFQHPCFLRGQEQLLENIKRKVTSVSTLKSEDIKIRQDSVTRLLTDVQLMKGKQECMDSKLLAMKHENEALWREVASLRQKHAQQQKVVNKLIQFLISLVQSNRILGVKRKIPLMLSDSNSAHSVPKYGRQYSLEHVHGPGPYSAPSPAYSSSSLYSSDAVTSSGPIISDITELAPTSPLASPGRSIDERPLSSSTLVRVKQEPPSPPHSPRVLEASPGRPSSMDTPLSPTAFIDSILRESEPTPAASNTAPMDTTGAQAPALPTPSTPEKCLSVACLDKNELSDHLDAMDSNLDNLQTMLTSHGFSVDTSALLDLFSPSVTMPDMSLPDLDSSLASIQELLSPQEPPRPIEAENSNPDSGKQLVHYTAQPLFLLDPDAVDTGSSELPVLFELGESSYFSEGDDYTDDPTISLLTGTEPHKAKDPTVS
# [16] = A cytotoxicity screen of small molecule inhibitors of the PhoP region in Salmonella typhi identified in the primary screen. [Related pubchem assays: 1850, 1864, 1985 ]; type: functional
# [17] = molecular target: Cytochrome P450 2D6 (Homo sapiens, UniProt P10635);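 also: CYP2D6 member of a cytochrome P450 panel assay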
# [18] = molecular target: Cytochrome P450 3A4 (Homo sapiens, UniProt P08684);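 also: CYP3A4 tested as one member of a cytochrome P450 panel screen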
# [19] = tested on: P388/ADR; experiment: cells; type: functional; conditions: Mus musculus
# [20] = tested on: SN12K1; experiment: cells; type: functional; conditions: Homo sapiens
# [21] = tested on: P388; experiment: cells; type: functional; conditions: Mus musculus
# [22] = NIH-3T3 fibroblast cytotoxicity, dose response, cytotoxicity control, cell-based, fluorescence, Alamar Blue, secondary assay (AID 2327); type: functional;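 also: NIH-3T3 mouse fibroblasts cultured with fluconazole at 8 µg/mL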
# [23] = tested on: BJ; experiment: BJ-TERT fibroblast viability loss – cell-based, RAS-independent, luminescence, dose response (AID 1933); type: functional; conditions: Homo sapiens
# [24] = tested on: BJ; experiment: cells; type: functional, cell-based; conditions: Homo sapiens
# [25] = fluconazole-exposed Candida albicans growth modulators – fluorescence, retest, confirmation (AID 2467); type: functional, cell-based
# [26] = tested on: BJ; experiment: BJ-TERT-LT-ST fibroblast viability loss – cell-based, RAS-independent, luminescence, dose response (AID 1935); type: functional; conditions: Homo sapiens;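 also: BJ fibroblasts immortalized with TERT plus LT and ST oncogenes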
# [27] = DRD fibroblast viability loss – cell-based, non-viral oncogenic, luminescence, dose response (AID 1934); type: functional; conditions: Homo sapiens
# [28] = HEK-293T viability loss after treatment – luminescence, T-cell screen hits, cytotoxicity control for TCR NF-kB inhibitor project, dose response (AID 489026); type: functional, cell-based;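 also: cells exposed to compound about 14 hours before the viability readout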
# [29] = molecular target: Nonstructural protein 1 (Influenza A virus, UniProt Q194T2); type: functional, Influenza A virus (A/California/07/2009(H1N1))
# [30] = tested on: INS1; experiment: INS-1E survival protection against cytokine death – cell-based, luminescence, retest, dose response (AID 449756); type: functional; conditions: Rattus norvegicus;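 also: cell death triggered by IL-1 beta plus TNF-alpha plus IFN-gamma mixture; protective hits raise ATP signal compared with cytokine alone wells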
# T4 sequence (P49327 whole entry): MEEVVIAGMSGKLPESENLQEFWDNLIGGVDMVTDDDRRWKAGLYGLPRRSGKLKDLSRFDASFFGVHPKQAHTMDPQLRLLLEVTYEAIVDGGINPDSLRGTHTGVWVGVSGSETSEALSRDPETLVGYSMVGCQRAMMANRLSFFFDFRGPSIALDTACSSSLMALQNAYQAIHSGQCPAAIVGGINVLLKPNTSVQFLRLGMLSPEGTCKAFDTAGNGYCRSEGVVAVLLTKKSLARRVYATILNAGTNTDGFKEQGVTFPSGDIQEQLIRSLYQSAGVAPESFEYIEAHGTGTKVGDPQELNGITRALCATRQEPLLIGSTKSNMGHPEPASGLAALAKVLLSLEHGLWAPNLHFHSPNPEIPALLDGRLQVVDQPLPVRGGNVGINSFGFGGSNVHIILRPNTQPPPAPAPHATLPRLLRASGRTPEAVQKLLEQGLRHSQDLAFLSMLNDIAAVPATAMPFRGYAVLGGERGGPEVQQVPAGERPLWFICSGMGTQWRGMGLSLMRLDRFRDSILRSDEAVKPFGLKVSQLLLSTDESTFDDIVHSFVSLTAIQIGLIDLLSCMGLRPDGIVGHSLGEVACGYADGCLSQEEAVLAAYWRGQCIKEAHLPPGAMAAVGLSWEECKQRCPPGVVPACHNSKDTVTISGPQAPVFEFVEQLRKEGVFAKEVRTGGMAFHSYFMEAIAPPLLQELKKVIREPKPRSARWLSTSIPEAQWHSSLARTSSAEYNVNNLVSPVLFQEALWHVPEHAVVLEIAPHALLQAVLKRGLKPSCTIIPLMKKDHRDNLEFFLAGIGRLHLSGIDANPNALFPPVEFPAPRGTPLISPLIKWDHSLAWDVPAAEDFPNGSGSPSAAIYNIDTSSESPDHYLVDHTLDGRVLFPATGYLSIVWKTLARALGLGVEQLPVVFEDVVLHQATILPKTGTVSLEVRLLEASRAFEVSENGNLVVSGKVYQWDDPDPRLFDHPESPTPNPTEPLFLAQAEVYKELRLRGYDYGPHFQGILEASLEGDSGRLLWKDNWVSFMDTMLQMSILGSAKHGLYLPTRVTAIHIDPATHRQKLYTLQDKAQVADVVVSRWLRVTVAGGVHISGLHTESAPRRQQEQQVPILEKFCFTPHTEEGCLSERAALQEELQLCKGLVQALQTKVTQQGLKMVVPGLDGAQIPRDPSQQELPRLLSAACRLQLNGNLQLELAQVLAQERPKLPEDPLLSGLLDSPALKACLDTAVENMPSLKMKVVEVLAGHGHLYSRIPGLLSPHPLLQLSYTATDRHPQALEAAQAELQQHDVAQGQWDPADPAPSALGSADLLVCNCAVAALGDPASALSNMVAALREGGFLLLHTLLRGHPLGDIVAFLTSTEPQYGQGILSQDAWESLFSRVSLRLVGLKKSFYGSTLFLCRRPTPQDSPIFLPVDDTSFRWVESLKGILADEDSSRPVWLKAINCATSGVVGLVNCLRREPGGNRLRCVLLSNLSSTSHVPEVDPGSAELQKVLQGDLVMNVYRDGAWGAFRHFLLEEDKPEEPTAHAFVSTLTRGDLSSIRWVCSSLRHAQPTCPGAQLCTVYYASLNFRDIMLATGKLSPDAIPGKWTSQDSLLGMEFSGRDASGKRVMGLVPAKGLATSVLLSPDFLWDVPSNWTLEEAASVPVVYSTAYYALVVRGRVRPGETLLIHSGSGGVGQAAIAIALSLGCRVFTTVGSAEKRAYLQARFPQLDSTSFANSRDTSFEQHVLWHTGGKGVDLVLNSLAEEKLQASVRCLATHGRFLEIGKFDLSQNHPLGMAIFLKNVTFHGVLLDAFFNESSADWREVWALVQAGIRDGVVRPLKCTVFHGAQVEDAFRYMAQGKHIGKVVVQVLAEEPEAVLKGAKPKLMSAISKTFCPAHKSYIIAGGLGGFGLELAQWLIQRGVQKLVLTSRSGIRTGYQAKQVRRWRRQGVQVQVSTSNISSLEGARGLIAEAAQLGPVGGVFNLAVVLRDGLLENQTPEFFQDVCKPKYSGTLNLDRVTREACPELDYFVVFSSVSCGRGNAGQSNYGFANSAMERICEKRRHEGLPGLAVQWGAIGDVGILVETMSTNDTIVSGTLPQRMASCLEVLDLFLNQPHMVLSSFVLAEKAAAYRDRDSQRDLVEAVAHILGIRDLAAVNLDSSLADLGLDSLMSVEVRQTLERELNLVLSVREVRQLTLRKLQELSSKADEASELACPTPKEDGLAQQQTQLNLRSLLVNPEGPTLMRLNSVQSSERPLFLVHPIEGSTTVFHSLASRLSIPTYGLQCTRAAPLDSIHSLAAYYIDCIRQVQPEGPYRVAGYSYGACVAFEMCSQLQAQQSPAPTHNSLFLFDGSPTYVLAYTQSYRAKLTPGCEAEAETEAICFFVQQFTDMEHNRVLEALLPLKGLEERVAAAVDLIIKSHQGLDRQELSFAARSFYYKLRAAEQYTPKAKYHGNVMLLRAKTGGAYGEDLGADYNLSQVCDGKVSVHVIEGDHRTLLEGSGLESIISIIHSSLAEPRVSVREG
# Chain of Induced myeloid leukemia cell differentiation protein Mcl-1 (Q07820 whole entry): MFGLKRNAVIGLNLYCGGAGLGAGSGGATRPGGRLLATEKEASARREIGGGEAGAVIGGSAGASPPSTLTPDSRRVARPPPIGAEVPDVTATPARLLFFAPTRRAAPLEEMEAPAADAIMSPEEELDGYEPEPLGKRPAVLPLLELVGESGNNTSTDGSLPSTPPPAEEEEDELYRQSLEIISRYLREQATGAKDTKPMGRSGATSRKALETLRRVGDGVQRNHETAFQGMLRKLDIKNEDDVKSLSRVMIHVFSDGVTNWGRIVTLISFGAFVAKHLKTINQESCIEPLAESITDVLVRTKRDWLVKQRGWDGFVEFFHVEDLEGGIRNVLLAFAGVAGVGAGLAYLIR
# Chain of Nonstructural protein 1 (Q194T2 whole entry): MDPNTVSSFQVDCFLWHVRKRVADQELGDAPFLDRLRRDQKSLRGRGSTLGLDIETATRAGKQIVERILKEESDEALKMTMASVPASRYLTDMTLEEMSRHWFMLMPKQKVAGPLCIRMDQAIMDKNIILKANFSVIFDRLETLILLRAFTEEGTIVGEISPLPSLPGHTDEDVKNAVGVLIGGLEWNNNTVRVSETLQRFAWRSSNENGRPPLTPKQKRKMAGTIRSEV
# Chain of Cytochrome P450 2D6 (P10635 whole entry): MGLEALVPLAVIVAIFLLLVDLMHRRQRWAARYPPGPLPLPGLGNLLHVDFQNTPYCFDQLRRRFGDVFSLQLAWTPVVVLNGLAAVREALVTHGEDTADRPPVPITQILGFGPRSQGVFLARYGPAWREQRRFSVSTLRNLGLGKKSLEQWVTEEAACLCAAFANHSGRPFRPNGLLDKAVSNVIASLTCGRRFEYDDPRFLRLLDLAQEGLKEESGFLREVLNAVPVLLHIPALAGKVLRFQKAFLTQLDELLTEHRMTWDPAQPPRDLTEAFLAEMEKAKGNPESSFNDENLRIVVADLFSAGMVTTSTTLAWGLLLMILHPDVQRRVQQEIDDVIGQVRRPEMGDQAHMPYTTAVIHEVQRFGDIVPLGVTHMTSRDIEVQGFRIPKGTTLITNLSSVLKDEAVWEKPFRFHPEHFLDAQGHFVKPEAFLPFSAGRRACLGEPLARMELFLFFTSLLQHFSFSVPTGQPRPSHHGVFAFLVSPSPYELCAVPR
# Chain of Cytochrome P450 3A4 (P08684 whole entry): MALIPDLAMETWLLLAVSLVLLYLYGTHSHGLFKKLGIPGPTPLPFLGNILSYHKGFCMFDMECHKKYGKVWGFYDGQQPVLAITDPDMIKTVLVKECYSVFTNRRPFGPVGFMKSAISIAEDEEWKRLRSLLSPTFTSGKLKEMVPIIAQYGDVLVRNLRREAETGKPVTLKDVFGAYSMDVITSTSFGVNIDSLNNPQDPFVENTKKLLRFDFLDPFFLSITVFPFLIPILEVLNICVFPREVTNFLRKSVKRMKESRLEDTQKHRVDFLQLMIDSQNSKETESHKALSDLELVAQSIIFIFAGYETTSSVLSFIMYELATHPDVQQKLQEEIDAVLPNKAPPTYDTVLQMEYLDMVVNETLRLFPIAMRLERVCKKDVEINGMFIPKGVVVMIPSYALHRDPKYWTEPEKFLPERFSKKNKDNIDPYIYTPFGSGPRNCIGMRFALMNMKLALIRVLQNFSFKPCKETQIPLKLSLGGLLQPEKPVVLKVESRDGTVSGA
compound,measurement,setting,value
Fc1ccc(C2Nc3cccc4cccc(c34)N2)cc1,AC50,[1],16.4 µM (active)
Nc1cc2c(cc1[N+](=O)[O-])OCO2,IC50,[2],5.21 µM (active)
COc1cc(C2C(=O)c3ccccc3C2=O)ccc1O,AC50,[1],3.44 µM (active)
same,IC50,[3],16.1 µM (active)
CCOC(=O)C1=C(c2ccccc2)NC(=O)NC1c1ccc(O)c(Cl)c1 (centres undefined),EC50,[4],> 350 µM (not active)
same,EC50,[5],> 350 µM (not active)
same,CC50,[6],22.5 µM (active)
CCC(C)(C)n1nnnc1C(c1ccc(O)c(OC)c1)N1CCc2ccccc2C1 (centres undefined),IC50,[2],6.3 µM (active)
COCCCn1c(N)c(C(=O)Nc2ccccc2)c2nc3ccccc3nc21,EC50,[7],16.9 µM (active)
same,EC50,[8],> 150 µM (not active)
same,EC50,[9],32.8 µM (active)
same,CC50,[6],> 25 µM (active)
COc1ccc(OC)c(/C=C2\SC(=S)N(Cc3cccnc3)C2=O)c1,CC50,[6],14.8 µM (active)
C[C@@H]1CN([C@@H](C)CO)C(=O)Cc2cc(NC(=O)Nc3ccc(F)cc3)ccc2O[C@@H]1CN(C)Cc1ccc(Cl)c(Cl)c1,AC50,[10],3.42 µM (active)
Cn1c(=O)c2cc3c(nc2n(C)c1=O)CC(c1ccccc1)CC3=O (centres undefined),IC50,[11],> 47.1 µM (inactive)
same,EC50,[12],> 53 µM (inactive)
same,IC50,[13],10.5 µM (active)
same,IC50,[14],14.5 µM (active)
Cc1noc(NS(=O)(=O)c2ccc(NC(=O)c3oc4ccc(F)cc4c3C)cc2)c1C,EC50,[15],> 260 µM (inactive)
same,AC50,[1],9.87 µM (active)
O=C1SC(c2ccccc2)=C/C1=C\N1CCCCC1,EC50,[16],> 50 µM (active)
same,AC50,[1],2.83 µM (active)
same,IC50,[3],45.9 µM (active)
same,AC50,[17],25.1 µM (inconclusive)
same,AC50,[18],25.1 µM (inconclusive)
COc1ccc(CNC(=O)CC2C[C@H](C(=O)N3CCOCC3)[C@@]3(CCC4CCCC4)c4[nH]c5ccccc5c4CCN3C2=O)cc1OC (some centres undefined),IC50,[13],3.67 µM (active)
same,IC50,[14],4.73 µM (active)
CC1(CO)C(O)CCC2(C)C1C(O)CC1CC3CC12CCC3(O)CO (centres undefined),GI50,[19],187 µM (inactive)
same,GI50,[20],209 µM (inactive)
same,GI50,[21],11.2 µM (inactive)
CCOCC(=O)N(C)c1cccc2c3c(n(C)c12)CCCCC3,GI50,[19],> 100 µM (inactive)
same,GI50,[20],> 100 µM (inactive)
same,GI50,[21],> 100 µM (inactive)
CC1=CC2=C(C=O)C(=O)[C@](C)(O)[C@@H](O)C2=CO1,GI50,[19],14.5 µM (inactive)
same,GI50,[20],30.4 µM (inactive)
same,GI50,[21],15 µM (inactive)
COC1CC(C)C(OC)c2cc(O)cc(c2O)NC(=O)/C(C)=C/C=C\C(C)C(OC(N)=O)/C(C)=C\C(C)C1OC (centres undefined),GI50,[19],1.55 µM (inactive)
same,GI50,[21],0.0693 µM (active)
COc1ccc(S(=O)(=O)Nc2ccc3c(c2)CC(=O)N([C@H](C)CO)C[C@@H](C)[C@@H](CN(C)S(=O)(=O)c2ccc(F)cc2)O3)cc1,AC50,[10],2.24 µM (active)
C[C@H](CO)N1C[C@H](C)[C@@H](CN(C)S(=O)(=O)c2ccc(Cl)cc2)Oc2c(NC(=O)c3nc4ccccc4s3)cccc2C1=O,AC50,[10],1.73 µM (active)
Cc1ccc(S(=O)(=O)Nc2ccc3c(c2)CC(=O)N([C@@H](C)CO)C[C@H](C)[C@H](CN(C)Cc2ccc(C(=O)Nc4ccccc4N)cc2)O3)cc1,AC50,[10],2.31 µM (active)
N=C(N)/N=N/c1c(O)[nH]c2ccc(Br)cc12,AC50,[1],5.14 µM (active)
Cc1nnc(N/N=C/c2ccccn2)nc1O,EC50,[22],4.26 µM (active)
same,EC50,[23],1.69 µM (active)
same,EC50,[4],7.24 µM (active)
same,EC50,[24],4.02 µM (active)
same,EC50,[25],2.72 µM (active)
same,EC50,[5],> 350 µM (not active)
same,EC50,[26],5.42 µM (active)
same,EC50,[27],5.38 µM (inconclusive)
same,IC50,[28],> 80 µM (inactive)
same,IC50,[29],3.92 µM (active)
same,AC50,[30],1.56 µM (active)
O=C1C=C2SC3C[C@@]24CC1(O)[N+]1=c2c4c(c(O)c4c2=C(C=N4)CC1)N3,GI50,[19],1.3 µM (inactive)
same,GI50,[20],1.29 µM (inactive)
same,GI50,[21],0.869 µM (active)
CC[C@@]1(O)C(=O)OCc2c1cc1n(c2=O)Cc2cc3cc(O)ccc3nc2-1 [HYDROXYCAMPTOTHECIN],GI50,[19],0.0304 µM (active)
same,GI50,[20],0.01 µM (active)
same,GI50,[21],0.0203 µM (active)
